Marks after values point to notes of the source that are not given here.

Series [1] deals with mice injected with ellagic acid via the tail vein. In words: Effect on in vivo clotting time in mice (ellagic acid tail vein injection). As to conditions: Mus musculus, iv, 100 mg/kg i.g. for 4 days, ellagic acid i.v. 1 h after last dose, vs model group, read-out: Clotting time prolongation (%). Here is the method: The control and model groups were gavaged with distilled water, and the positive clopidogrel group, and the test substance group were gavaged orally (i.g.) with drug solution in a volume of 0.1 mL/10 g for 4 consecutive days. 1 h after the last administration, all groups were injected with 0.15 mL/10 g of 0.3% ellagic acid solution via tail vein injection except for the blank group which was injected with physiological saline: 0.1 ml/10 g. After 5 min, glass capillaries were used for blood collection through the retro-orbital venous plexus, and the appearance time of coagulation filaments was recorded by glass capillaries at 10-second intervals.
Calculation equation for prolongation of clotting time:
Prolongation of clotting time (%)=[(mean value of clotting time in blank or administered group/mean value of clotting time in model group)−1]×100%

The next series concerns ICR mice. Description: Effect on in vivo bleeding time in mice (tail cut). As to conditions: 100 mg/kg i.g. once daily for 4 days. Here is the method: A normal control group (blank), positive control group (clopidogrel) and experimental groups were set up with 10 ICR mice (male, weighed about 25 g) in each group. Animals in each group were administered the corresponding drug solution by oral gavage (i.g.) at 0.1 ml/10 g body weight, and the blank control group was given distilled water, once daily for 4 days. On the 4th day, 1 h after the administration of the drug, the animals were anesthetized by intraperitoneal injection of sodium barbiturate at a dose of about 50 mg/kg, and 20 min later, the tails of the mice were cut at a distance of 3 mm from the tip of the tail, and at regular intervals, absorbent paper was used to dip the blood at the severed tails until no blood exuded, which was recorded as the bleeding time, and the results of the experiment were shown in Table 2.
Calculation equation for prolongation of bleeding time: […]

The test system of series [2] is rats with focal permanent cerebral ischemia (MCAO). Description: Focal permanent cerebral ischemic injury (MCAO), administration from 3 h post-ischemia. It counts as in vivo, SD rats.
Series [3] has as its system acute inflammatory response caused by ellagic acid (serum cytokines). In words: Antibody microarray detection of serum factors in ellagic acid model mice. On the set-up: TNFa / IL-6 / IL-1b / IL-5 / IL-13 / IL-1α / IL-1β / IL-2 / IL-3 / IL-4 / IFNg / CD40: unit not given here. It counts as in vivo, ICR mice. Here is the method:
Experimental methods: ICR male mice, weighed about 25 g, were randomly divided into four groups: normal group, ellagic acid model group, 1-1 group, and 1-22 group, with four mice in each group. Mice in 1-1 group and 1-22 group were given 1-1, 100 mg/kg and 1-22, 100 mg/kg by gavage once a day respectively. 1 h after the third administration, except for the normal control group, the other three groups of mice were injected into the tail vein with 0.10 mL/10 g of 0.3% ellagic acid saline solution, and 1 h after injection, whole blood was collected from each animal, and centrifuged (3,000 rpm/min) for 10 min after 30 min of standing, and then centrifuged to obtain the serum. The serum from each group of animal was mixed in an EP tube, transported at −80° C., and sent for antibody microarray detection.

Where [4] appears, read: Table 16, pooled serum, 100 mg/kg by gavage.
[5] abbreviates: Table 17, pooled serum, 100 mg/kg by gavage.
Where [6] appears, read: Table 18, pooled serum, 100 mg/kg by gavage.
[7] abbreviates: Table 19, pooled serum, 100 mg/kg by gavage.

As to `CCOC(=O)CCCCCNC(=O)CCCCCNc1cc(=O)n(C)c(=O)n1C` [Compound 1-23], the change in vivo at 100 mg/kg in series [1] is 38.1%. Moreover, the “Bleeding time prolongation (%)” value in the series with ICR mice was −19.20%.
For `CC(C)OC(=O)CCNC(=O)CCN(C)c1cc(=O)n(C)c(=O)n1Cc1cc(F)ccc1C#N` [Compound 1-45] the same measures were 43.1% and 18.60%.
Taken in the same sequence, the figures for `CCOC(=O)CCNC(=O)CCNc1cc(=O)n(C)c(=O)n1Cc1cc(F)ccc1C#N` [Compound 1-18] were 42.9% and 13.30%.
For `Cn1c(NCCC(=O)NCCC(=O)OC2CCCCC2)cc(=O)n(C)c1=O` [Compound 1-6] the same measures were 42.4% and 4.80%.
With `CCOC(=O)CCNC(=O)CCNc1cc(=O)n(C)c(=O)n1Cc1ccccc1C#N` [Compound 1-17], the change in vivo at 100 mg/kg in series [1] worked out at 44.1%. The “Bleeding time prolongation (%)” value in the series on ICR mice was −6.20%.
Taken in the same sequence, the figures for `CCOC(=O)CCNC(=O)CCNc1cc(=O)n(Cc2cccnc2)c(=O)n1Cc1cccnc1` [Compound 1-55] were 38.6% and −3.10%.
Taken in the same sequence, the figures for `CC(C)OC(=O)CCNC(=O)CCNc1cc(=O)n(C)c(=O)n1Cc1cccnc1` [Compound 1-27] were 39.5% and 23.50%.
Consider `CCOC(=O)CCNC(=O)CCNc1cc(=O)n(C2CCCC2)c(=O)n1C1CCCC1` [Compound 1-54], for which the change in vivo at 100 mg/kg in series [1] is 37.2%. In addition, in the series with ICR mice, the “Bleeding time prolongation (%)” value was found to be 13.00%.
For the molecule `CCOC(=O)CCNC(=O)CCNc1cc(=O)[nH]c(=N)[nH]1` [Compound 1-39], in series [1], the change in vivo at 100 mg/kg was 37.2%. The “Bleeding time prolongation (%)” value with ICR mice was 16.90%.
Taken in the same sequence, the figures for `Cn1c(NCCC(=O)NCCC(=O)OC2CC2)cc(=O)n(C)c1=O` [Compound 1-5] were 41.9% and −13.60%.
On to `Cn1c(=O)cc(NCCC(=O)NCCC(=O)Oc2ccccc2)n(Cc2ccccc2)c1=O` [Compound 1-30], for which the change in vivo at 100 mg/kg in series [1] worked out at 39.8%. For the same molecule, the “Bleeding time prolongation (%)” value with ICR mice is given as −9.70%.
Taken in the same sequence, the figures for `CC(C)OC(=O)CCNC(=O)CCNc1cc(=O)n(C)c(=O)n1Cc1cc(F)ccc1C#N` [Compound 1-13] were 39.8% and 15.60%.
For `CC(C)OC(=O)CCNC(=O)CCNc1cc(=O)n(Cc2ccccc2)c(=O)n1Cc1ccccc1` [Compound 1-26] the same measures were 40.4% and −13.30%.
For `CC(C)OC(=O)CCNC(=O)CCNc1cc(=O)n(C)c(=O)n1C` [Compound 1-2] the same measures were 49.9% and 6.50%.
For `CCCCC1OC(=O)c2ccccc21` (stereo not drawn) [Butylphthalide, butylphthalide, reference compound], the “Number of survivors after 15 days animal” value in series [2] (60 mg/kg by gavage once a day, 15 enrolled) was found to be 7. Moreover, the “Mortality (%)” value in series [2] (15-day, 60 mg/kg by gavage) amounted to 53.33%. Also, the “Neurological function score on day 15” value in series [2] (Bederson's method, 60 mg/kg) is given as 1.25. Also, in series [2] (mean body weight, 60 mg/kg), the “Weight on day 1” value stood at 281.00 g, the “Weight on day 5” value came out at 234.27 g and the “Weight on day 15” value is given as 276.75 g.
For `Cn1c(NCCC(=O)NCCC(=O)Oc2ccccc2)cc(=O)n(C)c1=O` [Compound 1-7], the change in vivo at 100 mg/kg in series [1] amounted to 41.7%. Further, the “Bleeding time prolongation (%)” value in the series on ICR mice was 15.10%.
For `CCOC(=O)[C@H](NC(=O)CCNc1cc(=O)n(C)c(=O)n1C)C(C)C` [Compound 1-42] the same measures were 41.4% and −13.40%.
As to `Cc1cccc(C)c1OC(=O)CCNC(=O)CCNc1cc(=O)n(C)c(=O)n1Cc1cc(F)ccc1C#N` [Compound 1-19], in series [1], the change in vivo at 100 mg/kg came out at 60.4%. In addition, the “Bleeding time prolongation (%)” value with ICR mice is listed as −38.00%.
For `CCOC(=O)CCNC(=O)[C@@H](Nc1cc(=O)n(C)c(=O)n1C)C(C)CC` (stereo partly drawn) [Compound 1-37] the same measures were 32.6% and 48.80%.
Regarding `CCOC(=O)CCNC(=O)[C@H](Nc1cc(=O)n(C)c(=O)n1C)C(C)CC` (stereo partly drawn) [Compound 1-22], the change in vivo at 100 mg/kg in series [1] amounted to 40.7%. Moreover, in the series with ICR mice, the “Bleeding time prolongation (%)” value is given as 19.83%. Besides, in series [3] (setting [4]), the IL-6 is 10,273.27*, the RANTES/ccl5 is on record as 1,909.28* and the TNFa is 290.22*. Besides, in series [3] (Table 16, pooled serum, 100 mg/kg by gavage once a day x3, 1 h after ellagic acid), the IL-1b is given as 268.76*. Further, in series [3] (setting [5]), the IL-1α is recorded as 837.49*, the IL-1β is 268.76*, the IL-2 is listed as 464.49 and the IL-3 is listed as 872.26*. In series [3] (setting [5]), the IL-4 is reported as 961.11*, the IL-5 is 227.55*, the IL-6 is 10,273.27* and the IL-13 was 620.73*. In series [3] (setting [6]), the Eotaxin/CCL11 is recorded as 3,096.53*, the MCP1/CCL2 is given as 2,231.63*, the MIP-3a/CCL20 was 1,252.13* and the RANTES/CCL5 was 1,909.28*. In series [3] (setting [7]), the CD40 is recorded as 509.56* and the IFNg is listed as 218.11*. Moreover, in series [3] (interleukin factors (Table 17), compared with the model group), the “number of down-regulated differential proteins” value is listed as “seven”.
For `CC1CCC(C(C)C)C(OC(=O)CCNC(=O)CCNc2cc(=O)n(C)c(=O)n2Cc2cc(F)ccc2C#N)C1` (stereo not drawn) [Compound 1-16], the change in vivo at 100 mg/kg in series [1] was 38%. In the series on ICR mice, the “Bleeding time prolongation (%)” value is listed as 11.00%.
Taken in the same sequence, the figures for `Cn1c(NCCC(=O)NCCC(=O)OC2CC3CCC2(C)C3(C)C)cc(=O)n(C)c1=O` (stereo not drawn) [Compound 1-4] were 39.7% and 16.40%.
As to `Cn1c(NCCCCCC(=O)NCCCCCC(=O)O)cc(=O)n(C)c1=O` [Compound 1-24], in series [1], the change in vivo at 100 mg/kg was found to be 36.7%. The “Bleeding time prolongation (%)” value in the series on ICR mice was 20.60%.
Consider `CCOC(=O)CCCCNC(=O)CCCCNC(=O)CCCCNc1cc(=O)n(C)c(=O)n1C` [Compound 1-48], for which the change in vivo at 100 mg/kg in series [1] came to 38.6%. Besides, the “Bleeding time prolongation (%)” value in the series with ICR mice was found to be 26.40%.
For `CC1CCC(C(C)C)C(OC(=O)CCNC(=O)CCNc2cc(=O)n(C)c(=O)n2Cc2cccnc2)C1` (stereo not drawn) [Compound 1-32] the same measures were 48.4% and −9.00%.
Taken in the same sequence, the figures for `Cc1cccc(C)c1OC(=O)CCNC(=O)CCNc1cc(=O)n(C)c(=S)n1C` [Compound 1-11] were 39.3% and 20.60%.
For `Cn1c(=O)cc(NCCC(=O)NCCC(=O)Oc2ccccc2)n(Cc2cc(F)ccc2C#N)c1=O` [Compound 1-15] the same measures were 42% and −4.70%.
Regarding `CC(C)OC(=O)CCNC(=O)CCNc1cc(=O)n(Cc2cccnc2)c(=O)n1Cc1cccnc1` [Compound 1-34], the change in vivo at 100 mg/kg in series [1] amounted to 53.5%. Besides, the “Bleeding time prolongation (%)” value with ICR mice was −2.10%.
Taken in the same sequence, the figures for `CCOC(=O)CCCCCNC(=O)CCCCCNc1cc(=O)[nH]c(=O)[nH]1` [Compound 1-38] were 37.5% and 28.40%.
